Our source for the T/C values is PubChem BioAssay AID330 (DTP/NCI, 2004).

For this experiment, the system named is P388 leukemia ip, CD2F1 mice, survival T/C. The experiment can be described thus: NCI In Vivo Anticancer Drug Screen. Data for tumor model P388 Leukemia (intraperitoneal) in CD2F1 (CDF1) mice. Conditions: endpoint: median survival time, higher = longer survival. In a few lines: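 Mice carrying the transplanted tumor received test compound or vehicle. Survival was recorded in each group, and the value is the treated-group measurement divided by that of the vehicle-treated control group.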

Setting [1] is: dose: 120.0 mg/kg/injection, schedule: Q01DX005 (ip), vehicle: saline with Tween-80.
Where [2] appears, read: dose: 240.0 mg/kg/injection, schedule: Q01DX005 (ip), vehicle: saline with Tween-80.
The mark [3] stands for this setting: dose: 25.0 mg/kg/injection, schedule: Q01DX009 (ip), vehicle: Klucel (hydroxypropylcellulose) (HPC).
[4] abbreviates: dose: 50.0 mg/kg/injection, schedule: Q01DX009 (ip), vehicle: Klucel (hydroxypropylcellulose) (HPC).
[5] abbreviates: dose: 12.5 mg/kg/injection, schedule: Q01DX009 (ip), vehicle: saline with Tween-80.
The mark [6] stands for this setting: dose: 25.0 mg/kg/injection, schedule: Q01DX009 (ip), vehicle: saline with Tween-80.
[7] abbreviates: dose: 50.0 mg/kg/injection, schedule: Q01DX009 (ip), vehicle: saline with Tween-80.
The mark [8] stands for this setting: dose: 100.0 mg/kg/injection, schedule: Q04DX003 (ip), vehicle: saline with Tween-80.
The mark [9] stands for this setting: dose: 100.0 mg/kg/injection, schedule: Q04DX003 (ip), vehicle: saline.
[10] abbreviates: dose: 100.0 mg/kg/injection, schedule: Q01DX009 (ip), vehicle: Klucel (hydroxypropylcellulose) (HPC).

Values joined by “and” are separate entries in the source; they are usually repeats but may differ in a detail not shown here. Equal values may be shown once. Inconclusive results and toxic doses are left out.

As for `Cc1ccc(NC(=O)N2CC2)cc1NC(=O)N1CC1`, the T/C was 112 % of control (dose: 0.78 mg/kg/injection, schedule: Q01DX009 (ip), vehicle: Klucel (hydroxypropylcellulose) (HPC)); 154 % of control (dose: 3.12 mg/kg/injection, schedule: Q01DX009 (ip), vehicle: Klucel (hydroxypropylcellulose) (HPC)); 107 % of control and 90 % of control (dose: 6.25 mg/kg/injection, schedule: Q01DX009 (ip), vehicle: Klucel (hydroxypropylcellulose) (HPC)).

For the molecule `N#CC1=C(O)/C(=C\C=C\c2ccccc2)N(C(=O)c2ccccc2)C1=N`, the T/C (dose: 60.0 mg/kg/injection, schedule: Q01DX005 (ip), vehicle: saline with Tween-80) is 105 % of control; the T/C under setting [1] was 100 % of control; the T/C under setting [2] is 104 % of control.

As to `CN[C@H]1CCc2cc(OC)c(OC)c(OC)c2-c2ccc(O)c(=O)cc21`, the T/C (dose: 2.5 mg/kg/injection, schedule: Q01DX009 (ip), vehicle: Klucel (hydroxypropylcellulose) (HPC)) was 103 % of control; the T/C (dose: 5.0 mg/kg/injection, schedule: Q01DX009 (ip), vehicle: Klucel (hydroxypropylcellulose) (HPC)) was 100 % of control; the T/C (dose: 10.0 mg/kg/injection, schedule: Q01DX009 (ip), vehicle: Klucel (hydroxypropylcellulose) (HPC)) was 99 % of control; the T/C (dose: 20.0 mg/kg/injection, schedule: Q01DX009 (ip), vehicle: Klucel (hydroxypropylcellulose) (HPC)) was 93 % of control; the T/C (dose: 40.0 mg/kg/injection, schedule: Q01DX009 (ip), vehicle: Klucel (hydroxypropylcellulose) (HPC)) is 92 % of control; the T/C (dose: 80.0 mg/kg/injection, schedule: Q01DX009 (ip), vehicle: Klucel (hydroxypropylcellulose) (HPC)) was 108 % of control.

For `O=[N+]([O-])c1c(N2CCN(CCO)CC2)nc2ccccn12`, the T/C by setting is: (dose: 12.5 mg/kg/injection, schedule: Q01DX009 (ip), vehicle: Klucel (hydroxypropylcellulose) (HPC)) 99 % of control; under setting [3], 91 % of control; under setting [4], 105 % of control.

As to `CC1CN=C(c2ccc(NC(=O)Nc3ccc(C(=O)Nc4ccc(C5=NCC(C)N5)cc4)cc3)cc2)N1` (stereo unspecified), the T/C reads like this: under setting [5], 195 % of control; under setting [6], 159 % of control and 213 % of control; (dose: 25.0 mg/kg/injection, schedule: Q04DX003 (ip), vehicle: saline with Tween-80) 116 % of control; under setting [7], 95 % of control; under setting [8], 150 % of control; under setting [9], 163 % of control.

`CCn1c(=S)[nH]c2sc3c(c2c1=O)CCCCC3`: the T/C is 89 % of control under setting [1] and 101 % of control under setting [2].

For `C=CCC(N)C(=O)O` (stereo unspecified), the T/C runs as follows: (dose: 50.0 mg/kg/injection, schedule: Q01DX005 (ip), vehicle: saline) 103 % of control; (dose: 100.0 mg/kg/injection, schedule: Q01DX005 (ip), vehicle: saline) 97 % of control.

As for `COC(CC(C)(O)C(F)(F)F)OC` (stereo unspecified), the T/C runs as follows: (dose: 60.0 mg/kg/injection, schedule: Q01DX005 (ip), vehicle: saline) 103 % of control; (dose: 120.0 mg/kg/injection, schedule: Q01DX005 (ip), vehicle: saline) 112 % of control; (dose: 240.0 mg/kg/injection, schedule: Q01DX005 (ip), vehicle: saline) 110 % of control.

For `COC1=CC(=O)c2nc(Cl)ccc2C1=O`, the T/C runs as follows: (dose: 6.25 mg/kg/injection, schedule: Q01DX005 (ip), vehicle: saline with Tween-80) 100 % of control; (dose: 12.5 mg/kg/injection, schedule: Q01DX005 (ip), vehicle: saline with Tween-80) 100 % of control; (dose: 25.0 mg/kg/injection, schedule: Q01DX005 (ip), vehicle: saline with Tween-80) 108 % of control and 92 % of control; (dose: 50.0 mg/kg/injection, schedule: Q01DX005 (ip), vehicle: saline with Tween-80) 100 % of control.

As for `CN(C)N=Nc1ccc(S(N)(=O)=O)cc1`, the T/C by setting is: under setting [3], 93 % of control; under setting [4], 114 % of control; under setting [10], 100 % of control.

Turning to `CC(c1ccccc1)[c-]1[c-][c-][c-][c-]1.[Cl][Zr][Cl].[c-]1[c-][c-][cH-][c-]1` (stereo unspecified), the T/C reads like this: (dose: 3.12 mg/kg/injection, schedule: Q01DX009 (ip), vehicle: saline with Tween-80) 93 % of control; (dose: 6.25 mg/kg/injection, schedule: Q01DX009 (ip), vehicle: saline with Tween-80) 104 % of control; under setting [5], 104 % of control; under setting [7], 95 % of control.

For the molecule `CC=C/C=C/[C@@H]1O[C@](O)([C@H](CC)C(=O)NC/C=C/C=C(\C)[C@@H](OC)[C@@H](C)[C@@H]2O[C@H](/C=C/C=C/C=C(\C)C(=O)c3c(O)cc[nH]c3=O)[C@H](O)[C@@H]2O)[C@H](O)[C@H](O)C1(C)C`, the T/C (dose: 4.5 mg/kg/injection, schedule: Q01DX009 (ip), vehicle: Klucel (hydroxypropylcellulose) (HPC)) is 108 % of control; the T/C (dose: 9.0 mg/kg/injection, schedule: Q01DX009 (ip), vehicle: Klucel (hydroxypropylcellulose) (HPC)) is 108 % of control; the T/C (dose: 18.0 mg/kg/injection, schedule: Q01DX009 (ip), vehicle: Klucel (hydroxypropylcellulose) (HPC)) was 104 % of control; the T/C (dose: 36.0 mg/kg/injection, schedule: Q01DX009 (ip), vehicle: Klucel (hydroxypropylcellulose) (HPC)) was 103 % of control; the T/C under setting [4] was 98 % of control; the T/C under setting [10] is 99 % of control. Moreover, the T/C is 99 % of control (dose: 200.0 mg/kg/injection, schedule: Q01DX009 (ip), vehicle: Klucel (hydroxypropylcellulose) (HPC)) and 102 % of control (dose: 400.0 mg/kg/injection, schedule: Q01DX009 (ip), vehicle: Klucel (hydroxypropylcellulose) (HPC)).

Turning to `O=C(NC(CCS(=O)(=O)NCCCl)C(=O)OCc1ccccc1)OCc1ccccc1` (stereo unspecified), the T/C reads like this: (dose: 12.5 mg/kg/injection, schedule: Q01DX009 (ip), vehicle: other) 104 % of control; (dose: 25.0 mg/kg/injection, schedule: Q01DX009 (ip), vehicle: other) 90 % of control; (dose: 50.0 mg/kg/injection, schedule: Q01DX009 (ip), vehicle: other) 105 % of control; (dose: 100.0 mg/kg/injection, schedule: Q01DX009 (ip), vehicle: other) 103 % of control; (dose: 200.0 mg/kg/injection, schedule: Q01DX009 (ip), vehicle: other) 91 % of control.

Take `CC(=O)Oc1ccccc1C(=O)OC1CCN(C(C)C)C1` (stereo unspecified): the T/C reads like this: under setting [9], 100 % of control; (dose: 200.0 mg/kg/injection, schedule: Q04DX003 (ip), vehicle: saline) 95 % of control.

On to `C=Cn1c([N+](=O)[O-])cnc1/C=C/c1ccc(C(=O)OCCN2CCCC2)cc1`, for which the T/C (dose: 12.5 mg/kg/injection, schedule: Q01DX001 (ip), vehicle: DMSO) is 105 % of control; the T/C (dose: 25.0 mg/kg/injection, schedule: Q01DX001 (ip), vehicle: DMSO) is 98 % of control; the T/C (dose: 50.0 mg/kg/injection, schedule: Q01DX001 (ip), vehicle: DMSO) is 104 % of control; the T/C (dose: 100.0 mg/kg/injection, schedule: Q01DX001 (ip), vehicle: DMSO) was 100 % of control.

As to `CN(C)c1nc(OC2C(C3COC(C)(C)O3)OC3OC(C)(C)OC32)nc(N(C)C)n1` (stereo unspecified), the T/C by setting is: under setting [8], 99 % of control; (dose: 200.0 mg/kg/injection, schedule: Q04DX003 (ip), vehicle: saline with Tween-80) 100 % of control; (dose: 400.0 mg/kg/injection, schedule: Q04DX003 (ip), vehicle: saline with Tween-80) 100 % of control.

For `CN(C)C(=S)S(=O)(=O)c1ccc(Cl)cc1`, the T/C reads like this: under setting [5], 105 % of control; under setting [6], 96 % of control; (dose: 25.0 mg/kg/injection, schedule: Q04DX002 (ip), vehicle: Klucel (hydroxypropylcellulose) (HPC)) 119 % of control; under setting [7], 96 % of control; (dose: 50.0 mg/kg/injection, schedule: Q04DX002 (ip), vehicle: Klucel (hydroxypropylcellulose) (HPC)) 112 % of control.
